Source: patent US20090028873A1, “SUBSTITUTED CYCLOHEXANOLS” (AUSPEX PHARMACEUTICALS, INC., priority 2007, published 2009)
Structures can show the parent of a compound that is named as a salt.

Assay: In Vitro Human Liver Microsomal (HLM) Stability Assay
Format: in vitro ADME
Details: vs non-isotopically enriched drug, 1 μM, 4 mg per mL liver microsome protein, 37° C.
Protocol: Liver microsomal stability assays are conducted at 4 mg per mL liver microsome protein with an NADPH-generating system in 2% NaHCO3 (2.2 mM NADPH, 25.6 mM glucose 6-phosphate, 6 units per mL glucose 6-phosphate dehydrogenase and 3.3 mM MgCl2). Test compounds are prepared as solutions in 20% acetonitrile-water and added to the assay mixture (final assay concentration 1 μM) and incubated at 37° C. Final concentration of acetonitrile in the assay should be <1%. Aliquots (50 μL) are taken out at times 0, 0.5, 1, 1.5, and 2 hours, and diluted with ice cold acetonitrile (200 μL) to stop the reactions. Samples are centrifuged at 12,000 RPM for 10 min to precipitate proteins. Supernatants are transferred to micro centrifuge tubes and stored for LC/MS/MS analysis of the degradation half-life of the test compounds.
Results of In Vitro Human Liver Microsomal (HLM) Stability Assay

SMILES	% increase of HLM degradation half-life 0%-50%	% increase of HLM degradation half-life 50%-150%	also measured
[2H]O[C@@]1(c2c([2H])c([2H])c([2H])c(OC([2H])([2H])[2H])c2[2H])C([2H])([2H])C([2H])([2H])C([2H])([2H])C([2H])([2H])[C@@]1([2H])C([2H])([2H])N(C([2H])([2H])[2H])C([2H])([2H])[2H] [Example 1, d25-(−)-(1S,2S)-2-[(Dimethylamino)-methyll-1-(3-methoxyphenyl)-cyclohexanol)]	+ (0%-50%)		
[2H]O[C@]1(c2c([2H])c([2H])c([2H])c(OC([2H])([2H])[2H])c2[2H])C([2H])([2H])C([2H])([2H])C([2H])([2H])C([2H])([2H])[C@]1([2H])C([2H])([2H])N(C([2H])([2H])[2H])C([2H])([2H])[2H] [Example 2]			% increase of HLM degradation half-life −25%-0% (column −25%-0%): + (−25%-0%)
[2H]c1c([2H])c(O)c([2H])c([C@]2(O)C([2H])([2H])C([2H])([2H])C([2H])([2H])C([2H])([2H])[C@@]2([2H])C([2H])([2H])N(C([2H])([2H])[2H])C([2H])([2H])[2H])c1[2H] [Example 3]	+ (0%-50%)		
COc1cccc(C2(O)CCCCC2CN(C)C)c1 (stereo not drawn) [Example 5, 2-(Dimethylaminomethyl)-1-(3-methoxyphenyl)-cyclohexanol, reference compound]		+ (50%-150%)	
COc1cccc([C@@]2(O)CCCC[C@@H]2CN(C)C)c1 [Example 6, (1R, 2R)-2-(Dimethylaminomethyl)-1-(3-methoxyphenyl)-cyclohexanol hydrochloride, reference compound]		+ (50%-150%)	
[2H]C([2H])([2H])Oc1cccc(C2(O)CCCCC2CN(C)C)c1 (stereo not drawn) [Example 8, d3-2-(Dimethylaminomethyl)-1-(3-methoxyphenyl)-cyclohexanol]	+ (0%-50%)		
[2H]C([2H])([2H])Oc1cccc([C@@]2(O)CCCC[C@@H]2CN(C)C)c1 [Example 9, d3-(1R, 2R)-2-(Dimethylaminomethyl)-1-(3-methoxyphenyl)-cyclohexanol hydrochloride]		+ (50%-150%)	
[2H]C([2H])([2H])N(CC1CCCCC1(O)c1cccc(OC)c1)C([2H])([2H])[2H] (stereo not drawn) [Example 11]		+ (50%-150%)	
[2H]C([2H])([2H])N(C[C@H]1CCCC[C@]1(O)c1cccc(OC)c1)C([2H])([2H])[2H] [Example 12, d6-(1R,2R)-2-(Dimethylaminomethyl)-1-(3-methoxyphenyl)-cyclohexanol hydrochloride]			% increase of HLM degradation half-life >150% (column >150%): + (>150%)
